Results reported in patent publication US11607464B2, “Compositions and methods for the treatment and imaging of cancer” (BOARD OF REGENTS OF THE UNIVERSITY OF NEBRASKA, priority 2018, dated 2023).

Columns and labels:
[1] = tested on: human glioblastoma cells lines; experiment: Cytotoxicity of the nonradioactive analogue; type: cell-based
Protocol: (§1) Cytotoxicity and radiosensitizing properties of the nonradioactive analogue were determined. Specifically, the cytotoxicity of the nonradioactive analogue N-[5-(3′-iodobenzoyl)-1H-benzimidazol-2-yl]carbamate was measured.

[2] = tested on: human neuroblastoma cell lines; experiment: Cytotoxicity of the nonradioactive analogue; type: cell-based
Protocol: as §1

U137 MG = experiment: Cell survival and LD50 determination (trypan blue exclusion); type: cell-based, human; details: value (std err)
Protocol: (§2) Compounds 1 or 2 dissolved in DMSO were added to the appropriate cell culture medium in concentrations ranging from 0 μM to 1.5 μM. Higher concentrations were not evaluated as the amount of DMSO required to maintain the drugs' solubility was not compatible with good cell culture conditions. The final concentration of DMSO was maintained at ≤0.5% in all flasks including controls. With each treatment group, duplicate flasks of control cells were grown and harvested alongside treated cells. Each treatment was tested in duplicate in at least two independent experiments (n=4-6 per concentration). Cell numbers were determined after 1 hour, 24 hours, and 48 hours of exposure to drugs using the trypan blue exclusion assay. Aliquots of cell suspension were mixed with a 0.2% solution of trypan blue in PBS (1/1; v/v) and counted in Cellometer® (Nexcelom Bioscience, Lawrence, Mass.). […] The reproductive integrity was also evaluated using a clonogenic survival assay.
(§3) Results Cell survival and LD50 determination for compounds 1 and 2 on four human cancer cell lines—BE(2)-C(neuroblastoma), SK-N-SH cells (neuroblastoma), U-87 MG (glioblastoma), and U137 MG.

U-87 MG = experiment: as above; type: cell-based, human; details: value (std err)
Protocol: as §2, §3

SK-N-SH = experiment: as above; type: cell-based, human; details: value (std err)
Protocol: as §2, with “The” for “Compounds 1 or 2 dissolved in DMSO were added to the appropriate cell culture medium in concentrations ranging from 0 μM to 1.5 μM. Higher concentrations were not evaluated as the amount of DMSO required to maintain the drugs' solubility was not compatible with good cell culture conditions. The”

BE(2)-C = experiment: as above; type: cell-based, human; details: value (std err)
Protocol: as §2, with “The” for “Compounds 1 or 2 dissolved in DMSO were added to the appropriate cell culture medium in concentrations ranging from 0 μM to 1.5 μM. Higher concentrations were not evaluated as the amount of DMSO required to maintain the drugs' solubility was not compatible with good cell culture conditions. The”

BE(2)-C cells = experiment: Clonogenic survival (reproductive integrity) with drug without and with XRT; type: cell-based, human
Protocol: (§4) Alongside all treatment groups, which included: drug alone (n=4), 4 Gy XRT alone (n=4), and drug+XRT (n=4), quadruplicate flasks of controls cells in medium containing DMSO were grown and harvested under identical culture conditions. Each treatment was tested in at least two independent experiments. The final concentration of DMSO was maintained at 0.5% in all flasks including controls. Cells grown in monolayers (50%-60% confluent) were irradiated at the dose of 4 Gy delivered at the dose rate of 1.36 Gy/minute in a Mark I 68A irradiator (J. L. Shepherd & Associates, San Fernando, Calif.). At designated times after treatment, cells were harvested, their numbers determined and plated at 200 and 500 live cells in duplicate or quadruplicate T25 flasks per each treatment. Cells were left undisturbed for ˜7 days after which time fresh medium was added and colonies were allowed to grow for up to 3 weeks. Colonies were washed with PBS, fixed with methanol, and stained with crystal violet. Briefly, colonies were washed with 5 mL ice-cold PBS, followed by 5 mL PBS/methanol (1:1; v/v), and fixed in 5 mL methanol for 10 minutes. Methanol was removed and flasks were left open to dry for a few hours. Crystal violet (3 mL; 0.25% in 1:1 PBS/methanol) was added to each flask to stain cells. After approximately 10 minutes, the dye was removed, flasks were rinsed with tap water followed by distilled water and were left to dry. Colonies were counted by two independent observers using the ImageJ software.

[3] = tested on: BE(2)-C neuroblastoma cells; experiment: Cell survival with drug without and with ionizing radiation (XRT); type: cell-based, human
Protocol: as §4

[4] = Solubility in common solvents; type: physicochemical

## COC(=O)Nc1nc2cc(C(=O)c3cccc(I)c3)ccc2[nH]1 [Compound 2, Methyl N [5-(3′-iodobenzoyl)-1H-benzimidazol-2-yl]carbamate]
[1]
  cytotoxicity: micromolar range
[2]
  cytotoxicity: low nM range
U137 MG
  LD50: 2.62 (1.35) uM
U-87 MG
  LD50: 0.20 (0.06) uM
SK-N-SH
  LD50: 1.29 (0.24) uM
BE(2)-C
  LD50: 0.02 (0.01) uM
BE(2)-C cells; BE(2)-C, 1 μM for 24 hours, without and with 4 Gy, FIGS. 8B and 8C
  clonogenic survival, cytotoxicity: very cytotoxic to the cancer cells, particularly in combination with irradiation
BE(2)-C cells; combined treatment of 4 Gy XRT and drug
  cells surviving, reproductive integrity assay: < 0.9%
BE(2)-C cells; drug alone
  cells surviving, reproductive integrity assay: 7.8%
[3]; 1 micromolar combined with 4 Gy ionizing radiation (XRT)
  cancer cells surviving: 4.8%
[3]; 1 micromolar, 24 hour exposure
  cancer cells killed: 89.8%
[3]; SK-N-SH and BE(2)-C cells, 1 μM, without and with XRT, 24 hours after treatment, FIG. 8A
  surviving fractions, cytotoxicity: very cytotoxic to the cancer cells, particularly in combination with irradiation
[4]
  solubility in common solvents: quite low solubility
